Experiment [1] deals with Mycobacterium tuberculosis. As to the kind of experiment: Antimycobacterial activity against Mycobacterium tuberculosis H37Rv by agar dilution method. The format is functional.
Another experiment concerns Vero. As to the kind of experiment: Cytotoxicity against Vero cell line upto 62.5 ug/ml after 72 hrs by MTT assay. The format is functional, cell-based. To be noted: Chlorocebus sabaeus. A general note: Tetrazolium assays rely on reduction of a dye to a coloured formazan, in cell work by metabolically active cells.

Converted amounts (≈) assume the structure as drawn.

The MIC is the least concentration at which growth counts as inhibited. Higher therefore signals weaker potency. In turn, `Cc1cc(C2=NN(C(=O)c3ccncc3)C(c3c(Cl)cccc3Cl)C2)ccc1O` (stereo not given) registered an MIC in experiment [1] of 0.47 µM (≈ 0.2 µg/mL). In addition, in the experiment with Vero, the Activity entry was “Not toxic”.

`Cc1cc(C2=NN(C(=O)c3ccncc3)C(c3ccccc3Cl)C2)ccc1O` (stereo not given) returned an MIC in experiment [1] of 0.26 µM (≈ 0.102 µg/mL). Further, the Activity entry with Vero was “Not toxic”.

Molecule `Cc1cc(C2=NN(C(=O)c3ccncc3)C(c3ccc(Cl)cc3)C2)ccc1O` (stereo not given) yielded an MIC in experiment [1] of 1.99 µM (≈ 0.78 µg/mL).

Turning to `Cc1cc(C2=NN(C(=O)c3ccncc3)C(c3ccccc3)C2)ccc1O` (stereo not given), the minimal inhibitory concentration (MIC) in experiment [1] was determined as 8.73 µM (≈ 3.12 µg/mL).

As to `COc1ccc(C2CC(c3ccc(O)c(C)c3)=NN2C(=O)c2ccncc2)cc1` (stereo not given), it took 16.1 µM (≈ 6.25 µg/mL) to inhibit growth in experiment [1] (MIC).

As for `Cc1cc(C2=NN(C(=O)c3ccncc3)C(c3ccco3)C2)ccc1O` (stereo not given), the MIC in experiment [1] came to 0.58 µM (≈ 0.201 µg/mL).

`Cc1cc(C2=NN(C(=O)c3ccncc3)C(c3ccc(F)cc3)C2)ccc1O` (stereo not given) yielded an MIC in experiment [1] of 0.27 µM (≈ 0.101 µg/mL). Also, the Activity result in the experiment on Vero was “Not toxic”.

As to `COc1ccc(C2CC(c3ccc(O)c(C)c3)=NN2C(=O)c2ccncc2)c(OC)c1OC` (stereo not given), 3.93 µM (≈ 1.76 µg/mL) was the least that counted as inhibitory in experiment [1] (MIC).

In experiment [1], `NNC(=O)c1ccncc1` [ISONIAZID] displayed a minimum inhibitory concentration (MIC) of 0.73 µM (≈ 0.1 µg/mL).

`Cc1cc(C2=NN(C(=O)c3ccncc3)C(c3ccc(N(C)C)cc3)C2)ccc1O` (stereo not given): in experiment [1], the MIC worked out at 1.95 µM (≈ 0.781 µg/mL).

In the case of `Cc1cc(C2=NN(C(=O)c3ccncc3)C(c3cccc([N+](=O)[O-])c3)C2)ccc1O` (stereo not given), the MIC in experiment [1] is 15.5 µM (≈ 6.25 µg/mL).

`COc1ccc(C2CC(c3ccc(O)c(C)c3)=NN2C(=O)c2ccncc2)cc1OC` (stereo not given) displayed a minimal inhibitory concentration (MIC) in experiment [1] of 1.87 µM (≈ 0.781 µg/mL).
